Values after ≈ are worked out from the molar mass of the structure shown.
Columns and labels:
Escherichia coli [1] = test: Antibacterial activity against Escherichia coli harboring TolC deletion mutant by microbroth dilution method; assay type: functional; settings: Escherichia coli; read-out: MIC
Proteus mirabilis = test: Antibacterial activity against Proteus mirabilis ATCC 25933 by microbroth dilution method; assay type: functional
Bacillus anthracis = test: Antibacterial activity against Bacillus anthracis Sterne 34F2 by microbroth dilution method; assay type: functional; settings: Bacillus anthracis, Sterne 34F2; read-out: MIC
[2] = tested on: Mycobacterium tuberculosis; test: Antitubercular activity against Mycobacterium tuberculosis H37Rv by microbroth dilution method; assay type: functional; settings: Mycobacterium tuberculosis, H37Rv; read-out: MIC
Proteus vulgaris = test: Antibacterial activity against Proteus vulgaris ATCC 33420 by microbroth dilution method; assay type: functional
Streptococcus pneumoniae = test: Antibacterial activity against Streptococcus pneumoniae R6 by microbroth dilution method; assay type: functional; settings: Streptococcus pneumoniae, R6; read-out: MIC
Enterococcus faecalis = test: Antibacterial activity against Enterococcus faecalis ATCC 33186 by microbroth dilution method; assay type: functional; settings: Enterococcus faecalis, ATCC 33186; read-out: MIC
Staphylococcus aureus [3] = test: Antibacterial activity against methicillin-resistant Staphylococcus aureus NRS70 by microbroth dilution method; assay type: functional; settings: Staphylococcus aureus, NRS70; read-out: MIC
Staphylococcus aureus [4] = test: Antibacterial activity against methicillin-sensitive Staphylococcus aureus ATCC 29213 by microbroth dilution method; assay type: functional; settings: Staphylococcus aureus, ATCC 29213; read-out: MIC
Escherichia coli [5] = test: Antibacterial activity against Escherichia coli K-12 by microbroth dilution method; assay type: functional
Bacillus subtilis = test: Antibacterial activity against Bacillus subtilis ATCC 23857 by microbroth dilution method; assay type: functional; settings: Bacillus subtilis, ATCC 23857; read-out: MIC
Burkholderia cepacia = test: Antibacterial activity against Burkholderia cepacia ATCC 25416 by microbroth dilution method; assay type: functional
Pseudomonas aeruginosa = test: Antibacterial activity against Pseudomonas aeruginosa PAO1 by microbroth dilution method; assay type: functional
Klebsiella pneumoniae = test: Antibacterial activity against Klebsiella pneumoniae ATCC 33495 by microbroth dilution method; assay type: functional
Acinetobacter baumannii = test: Antibacterial activity against Acinetobacter baumannii ATCC 19606 by microbroth dilution method; assay type: functional, ATCC 19606 = CIP 70.34 = JCM 6841; settings: Acinetobacter baumannii, ATCC 19606 = CIP 70.34 = JCM 6841; read-out: MIC
Streptococcus pyogenes = test: Antibacterial activity against Streptococcus pyogenes ATCC 700294 by microbroth dilution method; assay type: functional; settings: Streptococcus pyogenes, ATCC 700294; read-out: MIC

SMILES | MIC (Escherichia coli [1]) [µg/mL] | MIC (Proteus mirabilis) [µg/mL] | MIC (Bacillus anthracis) [µg/mL] | MIC [2] [µg/mL] | MIC (Proteus vulgaris) [µg/mL] | MIC (Streptococcus pneumoniae) [µg/mL] | MIC (Enterococcus faecalis) [µg/mL] | MIC (Staphylococcus aureus [3]) [µg/mL] | MIC (Staphylococcus aureus [4]) [µg/mL] | MIC (Escherichia coli [5]) [µg/mL] | MIC (Bacillus subtilis) [µg/mL] | MIC (Burkholderia cepacia) [µg/mL] | MIC (Pseudomonas aeruginosa) [µg/mL] | MIC (Klebsiella pneumoniae) [µg/mL] | MIC (Acinetobacter baumannii) [µg/mL] | MIC (Streptococcus pyogenes) [µg/mL]
COc1ccc2cc1Oc1cc(ccc1OC)CCC(OC(=O)CCc1ccccc1)CCCC2 (stereo not drawn) | > 100 | > 100 | > 100 | > 100 | > 100 | > 100 | > 100 | > 100 | > 100 | > 100 | > 100 | > 100 | > 100 | > 100 | > 100 | > 100
COc1ccc2cc1Oc1cc(ccc1OC)CCC(NCCc1ccc(F)cc1)CC2 | 50 (≈ 115 µM) | > 100 | 100 (≈ 230 µM) | 50 (≈ 115 µM) | > 100 | 100 (≈ 230 µM) | 100 (≈ 230 µM) | 100 (≈ 230 µM) | 50 (≈ 115 µM) | > 100 | 50 (≈ 115 µM) | > 100 | > 100 | > 100 | 100 (≈ 230 µM) | 100 (≈ 230 µM)
COc1ccc2cc1Oc1cc(ccc1OC)CCC(OC(=O)Nc1ccc(F)cc1)CCCC2 (stereo not drawn) | > 100 | > 100 | > 100 | > 100 | > 100 | > 100 | 50 (≈ 104 µM) | 25 (≈ 52.1 µM) | > 100 | > 100 | > 100 | > 100 | > 100 | > 100 | > 100 | > 100
COc1ccc2cc1Oc1cc(ccc1OC)CCC(OS(=O)(=O)c1ccc(C)cc1)CCCC2 (stereo not drawn) | > 100 | > 100 | > 100 | > 100 | > 100 | > 100 | 100 (≈ 201 µM) | 100 (≈ 201 µM) | > 100 | > 100 | > 100 | > 100 | > 100 | > 100 | > 100 | > 100
COc1ccc2cc1Oc1cc(ccc1OC)CCC(NCCc1ccccc1F)CCCC2 (stereo not drawn) | 25 (≈ 53.9 µM) | > 100 | 50 (≈ 108 µM) | 25 (≈ 53.9 µM) | > 100 | 50 (≈ 108 µM) | 25 (≈ 53.9 µM) | 25 (≈ 53.9 µM) | 50 (≈ 108 µM) | > 100 | 12.5 (≈ 27 µM) | > 100 | > 100 | > 100 | 100 (≈ 216 µM) | 50 (≈ 108 µM)
COc1ccc2cc1Oc1cccc(c1)CCC(NCCc1ccc(F)cc1)CC2 (stereo not drawn) | 12.5 (≈ 30.8 µM) | > 100 | 50 (≈ 123 µM) | 25 (≈ 61.7 µM) | > 100 | 50 (≈ 123 µM) | 50 (≈ 123 µM) | 25 (≈ 61.7 µM) | 25 (≈ 61.7 µM) | > 100 | 25 (≈ 61.7 µM) | > 100 | > 100 | > 100 | 50 (≈ 123 µM) | 50 (≈ 123 µM)
COc1ccc2cc1Oc1cc(ccc1OC)CCC(NC(=O)NCCc1ccccc1)CCCC2 (stereo not drawn) | > 100 | > 100 | > 100 | > 100 | > 100 | > 100 | > 100 | > 100 | > 100 | > 100 | > 100 | > 100 | > 100 | > 100 | > 100 | > 100
COc1ccc2cc1Oc1cc(ccc1OC)CCC(OC(=O)NCc1ccccc1)CCCC2 (stereo not drawn) | > 100 | > 100 | > 100 | > 100 | > 100 | > 100 | > 100 | > 100 | > 100 | > 100 | > 100 | > 100 | > 100 | > 100 | > 100 | > 100
